Source: patent US10414760B2, “Cytochrome P450 inhibitors and uses thereof” (ANGION BIOMEDICA CORP., priority 2016, dated 2019)

biological target: T1, CYP26 (Mus musculus, UniProt O55127); assay: CYP26 inhibition: substrate depletion assay for ATRA metabolism in mouse microsomes; type: biochemical
T1 construct: tissue Xenotech; host or cells: liver microsomes of ATRA-treated mice
T1 sequence (O55127 1-497): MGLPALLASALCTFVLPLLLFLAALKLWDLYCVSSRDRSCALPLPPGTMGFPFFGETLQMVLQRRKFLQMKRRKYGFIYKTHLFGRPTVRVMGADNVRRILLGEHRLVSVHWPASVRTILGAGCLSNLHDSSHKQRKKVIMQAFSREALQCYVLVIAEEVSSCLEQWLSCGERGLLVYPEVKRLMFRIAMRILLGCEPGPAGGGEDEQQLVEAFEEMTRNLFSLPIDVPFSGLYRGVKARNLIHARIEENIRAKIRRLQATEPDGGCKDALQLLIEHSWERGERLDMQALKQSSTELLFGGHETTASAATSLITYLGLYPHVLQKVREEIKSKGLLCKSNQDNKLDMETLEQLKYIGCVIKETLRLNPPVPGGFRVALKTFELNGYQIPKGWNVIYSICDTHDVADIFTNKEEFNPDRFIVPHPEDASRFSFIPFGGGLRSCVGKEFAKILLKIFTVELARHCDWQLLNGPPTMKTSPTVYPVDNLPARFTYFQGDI
Method: Serum Testosterone and PSA and Tumor Testosterone Analysis. Tumor tissue obtained from mice will be homogenized in phosphate buffer (pH 7.4, 0.1 M) and homogenates centrifuged at 2000 g for 20 min. Testosterone concentrations in the serum and in the clear tissue homogenate supernatant will be determined with the ELISA kit from R&D Systems (Catalog # KGR010). Serum PSA concentrations will be measured using a PSA ELISA kit with a serum dilution according to the manufacturers instructions. • c. Breast cancer. To test the efficacy of compounds embodied herein against breast cancer, nude mice carrying human breast cancer lines that are estrogen receptor and Aromatase positive will be used. Cells will be grown in vitro and 2 million will be inoculated in Matrigel (50:50 volume ratio of cells to Matrigel). Cells will be distributed by s.c. injection at the right and left flanks or at the orthotopic sitest in 6 to 8 week old athymic nude mice (BALB/c strain) or severe combined immunodeficient mice under anesthesia. Animals will be treated with compound for 4 weeks, at which point animals will be sacrificed and collect blood samples and tumor tissue for the determination of serum and tumor estrogen levels. Tumors will be excised and a portion will be fixed in formalin for subsequent histochemical and immuno-histochemical analysis. The remainder will be snap frozen in liquid nitrogen and stored at −80° C. • 12. CYP26 inhibition activity. A substrate depletion assay for ATRA metabolism in mouse microsomes is used. […] The assay is run in a 100 μL reaction volume and stopped with an equal volume of methanol. […] CYP17 inhibition assay: In vitro assays for CYP17 17α-hydroxylase and C17,20-lyase activity, assays using rat and dog testis microsomes and ELISA kits from commercial vendors for the detection of formed products are employed. Incubation of rat testis microsomes with the substrate progesterone (P4) results, through the CYP17 17α-hydroxylase and C17,20-lyase activities, in a marked production of androstenedione (AD) in a time and enzyme-concentration dependent manner. […] In another control, microsomes isolated from rat livers, which are known to express very little or no CYP17, are shown to be devoid of this activity. Assays are also used that determine the activity of 17α-hydroxylase activity using P4 as a substrate and detecting HOP4 as a product (using dog testis microsomes) and the activity of C17,20-lyase by using HOP4 as a substrate and AD as a product (rat testis microsomes). • 14. CYP19 inhibition assay: For in vitro assays of CYP19 aromatase activity, commercially available CYP19 enzyme preparations (e.g. BD Gentest Supersomes Catalog #456260) and assay kits (e.g. BD Gentest Catalog #459520) are employed according to the manufacturers instructions.
CYP26 inhibition. […] The assay was run in a 100 μL reaction volume and stopped with an equal volume of methanol. […] Other compounds of formula (I) are similarly potent, for example with an IC50 of 1.6 nM.

IC50, < 1000 nM:
CCC(CC)C(c1ccc2nc(-c3cccc(C(=O)O)c3)sc2c1)n1ccnc1 (stereo not drawn) [3-(6-(2-Ethyl-1-(1H-imidazol-1-yl)butyl)benzo[d]thiazol-2-yl)benzoic acid]
CCC(C(c1ccc2nc(NCc3cccc(C(=O)O)c3)sc2c1)n1ccnc1)N(C)C (stereo not drawn) [Example 7, 3-(((6-(2-(Dimethylamino)-1-(1H-imidazol-1-yl)butyl)benzo[d]thiazol-2-yl)amino)methyl)benzoic acid]
CCC(C(c1ccc2nc(Nc3ccc(C(=O)O)cc3)sc2c1)n1ccnc1)N(C)C (stereo not drawn) [Example 17, 4-((6-(2-(Dimethylamino)-1-(1H-imidazol-1-yl)butyl)benzo[d]thiazol-2-yl)amino)benzoic acid]
CCC(C(c1ccc2nc(NCC(C)(C)C(=O)O)sc2c1)n1ccnc1)N(C)C (stereo not drawn) [Example 19, 3-((6-(2-(Dimethylamino)-1-(1H-imidazol-1-yl)butyl)benzo[d]thiazol-2-yl)amino)-2,2-dimethylpropanoic acid]
CCC(C(c1ccc2nc(NC(=O)CC(C)(C)C(=O)O)sc2c1)n1ccnc1)N(C)C (stereo not drawn) [Example 20, 4-((6-(-2-(dimethylamino)-1-(1H-imidazol-1-yl)butyl)benzo[d]thiazol-2-yl)amino)-2,2-dimethyl-4-oxobutanoic acid]
CCC(C(c1ccc2nc(NC(=O)c3ccc(C(=O)O)cc3)sc2c1)n1ccnc1)N(C)C (stereo not drawn) [Example 22, 4-((6-(2-(dimethylamino)-1-(1H-imidazol-1-yl)butyl)benzo[d]thiazol-2-yl)carbamoyl)benzoic acid]
CCC(C(c1ccc2nc(Oc3ccc(C(=O)O)cc3)sc2c1)n1ccnc1)N(C)C (stereo not drawn) [Example 24, 4-((6-(2-(Dimethylamino)-1-(1H-imidazol-1-yl)butyl)benzo[d]thiazol-2-yl)oxy)benzoic acid]
CCC(C(c1ccc2nc(-c3ccc(C(=O)OC)cc3)sc2c1)n1ccnc1)N(C)C (stereo not drawn) [Example 25, Methyl 4-(6-(2-(dimethylamino)-1-(1H-imidazol-1-yl)butyl)benzo[d]thiazol-2-yl)benzoate]
CCC(C(c1ccc2nc(-c3ccc(C(=O)O)cc3)sc2c1)n1ccnc1)N(C)C (stereo not drawn) [Example 26, 4-(6-(2-(Dimethylamino)-1-(1H-imidazol-1-yl)butyl)benzo[d]thiazol-2-yl)benzoic acid]
CCC(CC)C(c1ccc2nc(-c3ccc(C(=O)OC)cc3)sc2c1)n1ccnc1 (stereo not drawn) [Example 29, Methyl 4-(6-(2-ethyl-1-(1H-imidazol-1-yl)butyl)benzo[d]thiazol-2-yl)benzoate]
CCC(CC)C(c1ccc2nc(-c3ccc(C(=O)O)cc3)sc2c1)n1ccnc1 (stereo not drawn) [Example 30, 4-(6-(2-Ethyl-1-(1H-imidazol-1-yl)butyl)benzo[d]thiazol-2-yl)benzoic acid]
CCC(C(c1ccc2nc(NCc3ccc(C(=O)O)cc3)sc2c1)n1ccnc1)N(C)C (stereo not drawn) [Example 35, 4-(((6-(2-(Dimethylamino)-1-(1H-imidazol-1-yl)butyl)benzo[d]thiazol-2-yl)amino)methyl)benzoic acid]
CCC(C(c1ccc2nc(Nc3cccc(C(=O)O)c3)sc2c1)n1ccnc1)N(C)C (stereo not drawn) [Example 39, 3-((6-(2-(dimethylamino)-1-(1H-imidazol-1-yl)butyl)benzo[d]thiazol-2-yl)amino)benzoic acid]
CCC(C(c1ccc2nc(NC(=O)c3cccc(C(=O)O)c3)sc2c1)n1ccnc1)N(C)C (stereo not drawn) [Example 41, 3-((6-(2-(dimethylamino)-1-(1H-imidazol-1-yl)butyl)benzo[d]thiazol-2-yl)carbamoyl)benzoic acid]
CCC(C(c1ccc2nc(NC(=O)C3(C(=O)O)CCC3)sc2c1)n1ccnc1)N(C)C (stereo not drawn) [Example 43, 1-((6-(2-(Dimethylamino)-1-(1H-imidazol-1-yl)butyl)benzo[d]thiazol-2-yl)carbamoyl)cyclobutanecarboxylic acid]
CCC(C(c1ccc2nc(NC(=O)C3(C(=O)O)CCCCC3)sc2c1)n1ccnc1)N(C)C (stereo not drawn) [Example 45, 1-((6-(2-(Dimethylamino)-1-(1H-imidazol-1-yl)butyl)benzo[d]thiazol-2-yl)carbamoyl)cyclohexanecarboxylic acid]
CCC(C(c1ccc2nc(NC(=O)C3(C(=O)O)CCCC3)sc2c1)n1ccnc1)N(C)C (stereo not drawn) [Example 47, 1-((6-(2-(Dimethylamino)-1-(1H-imidazol-1-yl)butyl)benzo[d]thiazol-2-yl)carbamoyl)cyclopentanecarboxylic acid]
CCC(C(c1ccc2nc(NC(=O)CCC(C)(C)C(=O)O)sc2c1)n1ccnc1)N(C)C (stereo not drawn) [Example 49, 5-((6-(-2-(Dimethylamino)-1-(1H-imidazol-1-yl)butyl)benzo[d]thiazol-2-yl)amino)-2,2-dimethyl-5-oxopentanoic acid]
CCC(C(c1ccc2nc(NC(=O)C3CC4CCC3C4)sc2c1)n1ccnc1)N(C)C (stereo not drawn) [Example 52, N-(6-(-2-(dimethylamino)-1-(1H-imidazol-1-yl)butyl)benzo[d]thiazol-2-yl)bicyclo[2.2.1]heptane-2-carboxamide]
CCC(C(c1ccc2nc(Oc3cccc(C(=O)O)c3)sc2c1)n1ccnc1)N(C)C (stereo not drawn) [Example 54, 3-((6-(2-(Dimethylamino)-1-(1H-imidazol-1-yl)butyl)benzo[d]thiazol-2-yl)oxy)benzoic acid]
CCC(C(c1ccc2nc(-c3cccc(C(=O)O)c3)sc2c1)n1ccnc1)N(C)C (stereo not drawn) [Example 56, 3-(6-(2-(Dimethylamino)-1-(1H-imidazol-1-yl)butyl)benzo[d]thiazol-2-yl)benzoic acid]
CCC(C(c1ccc2nc(-c3ccc(C(=O)O)cc3)sc2c1)n1ccnc1)N(C)CC (stereo not drawn) [Example 58, 4-(6-(2-(Ethyl(methyl)amino)-1-(1H-imidazol-1-yl)butyl)benzo[d]thiazol-2-yl)benzoic acid]
CCC(C(c1ccc2nc(-c3cccc(C(=O)O)c3)sc2c1)n1ccnc1)N(C)CC (stereo not drawn) [Example 60, 3-(6-(2-(Ethyl(methyl)amino)-1-(1H-imidazol-1-yl)butyl)benzo[d]thiazol-2-yl)benzoic acid]
CCC(C(c1ccc2nc(-c3ccc(C(=O)O)c(Cl)c3)sc2c1)n1ccnc1)N(C)C (stereo not drawn) [Example 62, 2-Chloro-4-(6-(2-(dimethylamino)-1-(1H-imidazol-1-yl)butyl)benzo[d]thiazol-2-yl)benzoic acid]
CCC(C(c1ccc2nc(-c3ccc(Cl)c(C(=O)O)c3)sc2c1)n1ccnc1)N(C)C (stereo not drawn) [Example 64, 2-Chloro-5-(6-(2-(dimethylamino)-1-(1H-imidazol-1-yl)butyl)benzo[d]thiazol-2-yl)benzoic acid]
CCC(C(c1ccc2nc(-c3ccc(F)c(C(=O)O)c3)sc2c1)n1ccnc1)N(C)C (stereo not drawn) [Example 66, 5-(6-(2-(Dimethylamino)-1-(1H-imidazol-1-yl)butyl)benzo[d]thiazol-2-yl)-2-fluorobenzoic acid]
CCC(C(c1ccc2nc(-c3cc(F)cc(C(=O)O)c3)sc2c1)n1ccnc1)N(C)C (stereo not drawn) [Example 68, 3-(6-(2-(Dimethylamino)-1-(1H-imidazol-1-yl)butyl)benzo[d]thiazol-2-yl)-5-fluorobenzoicacid]
